Test results: patent publication US10118935B2, “Melampomagnolide B dimers” (priority 2014, dated 2018)

Columns and labels:
RPMI-8226 [1] = system: RPMI-8226
NCI-H460 [2] = system: NCI-H460
HCT-116 [3] = system: HCT-116
SNB-75 [4] = system: SNB-75
A498 [5] = system: A498
CAKI-1 [6] = system: CAKI-1
CCRF-CEM = assay: NCI 60 cell line five dose, Leukemia
RPMI-8226 [7] = assay: NCI 60 cell line five dose, Leukemia
UACC-257 = assay: NCI 60 cell line five dose, Melanoma
SF-539 = assay: NCI 60 cell line five dose, CNS Cancer
SNB-75 [8] = assay: NCI 60 cell line five dose, CNS Cancer
HCT-116 [9] = assay: NCI 60 cell line five dose, Colon Cancer
A498 [10] = assay: NCI 60 cell line five dose, Renal Cancer
CAKI-1 [11] = assay: NCI 60 cell line five dose, Renal Cancer
OVCAR-5 = assay: NCI 60 cell line five dose, Ovarian Cancer
PC-3 = assay: NCI 60 cell line five dose, Prostate Cancer
NCI-H460 [12] = assay: NCI 60 cell line five dose, Non-Small Cell Lung Cancer

## C=C1C(=O)O[C@H]2[C@H]1CC/C(COC(=O)CCC(=O)NCCCCCCCCCNC(=O)CCC(=O)OC/C1=C/CC[C@@]3(C)O[C@H]3[C@H]3OC(=O)C(=C)[C@@H]3CC1)=C\CC[C@@]1(C)O[C@@H]21 [JVM 2-92, bis(((1aR,7aS,10aS,10bS,E)-1a-Methyl-8-methylene-9-oxo-1a,2,3,6,7,7a,8,9,10a,10b-decahydrooxireno[2′,3′:9,10]cyclodeca[1,2-b]furan-5-yl)methyl)4,4′-(nonane-1,9-diylbis(azanediyl))bis (4-oxobutanoate)]
K-562
  CC50: > 100 µM
MOLT-4
  CC50: > 100 µM
RPMI-8226 [1]
  CC50: > 100 µM
SR
  CC50: > 100 µM
A549/ATCC
  CC50: 82.6 µM
NCI-H226
  CC50: 8.6 µM
NCI-H460 [2]
  CC50: 25.7 µM
NCI-H522
  CC50: 5.63 µM
HCC-2998
  CC50: 9.82 µM
HCT-116 [3]
  CC50: 4.97 µM
HT29
  CC50: 5.69 µM
KM12
  CC50: 50.2 µM
SW-620
  CC50: 6.14 µM
SF-268
  CC50: 42.4 µM
SNB-75 [4]
  CC50: 15.6 µM
LOX IMVI
  CC50: 4.06 µM
MALME-3M
  CC50: 8.93 µM
M14
  CC50: 8.05 µM
SK-MEL-2
  CC50: 8.13 µM
SK-MEL-28
  CC50: 6.22 µM
OVCAR-4
  CC50: 8.06 µM
SK-OV-3
  CC50: 49.1 µM
786-0
  CC50: 6.04 µM
A498 [5]
  CC50: 31.3 µM
CAKI-1 [6]
  CC50: 49.9 µM
SN12C
  CC50: 49.7 µM
MDA-MB-231/ATCC
  CC50: 13.3 µM
BT-549
  CC50: 4.65 µM
CCRF-CEM
  GI50: 0.28 µM
  TGI: 1.00 µM
RPMI-8226 [7]
  GI50: 0.5 µM
  TGI: 3.33 µM
UACC-257
  GI50: 2.06 µM
  TGI: 5.59 µM
SF-539
  GI50: 1.85 µM
  TGI: 4.29 µM
SNB-75 [8]
  GI50: 1.47 µM
  TGI: 4.35 µM
HCT-116 [9]
  GI50: 0.86 µM
  TGI: 2.18 µM
A498 [10]
  GI50: 2.72 µM
  TGI: 8.30 µM
CAKI-1 [11]
  GI50: 10.5 µM
  TGI: 22.8 µM
OVCAR-5
  GI50: 1.7 µM
  TGI: 3.47 µM
PC-3
  GI50: 2.53 µM
  TGI: 7.31 µM
NCI-H460 [12]
  GI50: 2.18 µM
  TGI: 5.17 µM
